Laboratory results as given in ChEMBL document CHEMBL1201862, “PubChem BioAssay data set” (2004).
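Method: 48-hour compound exposure of cells in 96-well plates, five concentrations, linear interpolation of endpoints. Here, GI50 denotes the concentration required for 50% inhibition of growth.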 The source made the active and inactive calls. No stated cut-off is given here; in the data, active = GI50 up to about 1.1 µM and inactive = higher.

Columns and labels:
Assay in all cases: NCI tumour cell line growth inhibition, 48 h
ACHN = tested on: ACHN
HOP-62 = tested on: HOP-62
CCRF-CEM = tested on: CCRF-CEM
MDA-N = tested on: MDA-N
HCT-15 = tested on: HCT-15
NCI-H522 = tested on: NCI-H522
OVCAR-8 = tested on: OVCAR-8
T47D = tested on: T47D
NCI-H23 = tested on: NCI-H23
SN12C = tested on: SN12C
A549 = tested on: A549
PC-3 = tested on: PC-3
SK-MEL-5 = tested on: SK-MEL-5
SK-MEL-2 = tested on: SK-MEL-2
SK-OV-3 = tested on: SK-OV-3
EKVX = tested on: EKVX
TK-10 = tested on: TK-10
HOP-92 = tested on: HOP-92
RPMI-8226 = tested on: RPMI-8226
CAKI-1 = tested on: CAKI-1

Measured: GI50

O=C(/C=C/c1ccc(O)c(O)c1)OCCc1ccc2ccccc2c1
inactive: ACHN 2.86 µM | HOP-62 13.2 µM | CCRF-CEM 4.63 µM | MDA-N 2.38 µM | NCI-H522 2.38 µM | OVCAR-8 10.4 µM | T47D 4.67 µM | NCI-H23 3.42 µM | SN12C 5.26 µM | A549 9.35 µM | PC-3 7.55 µM | SK-MEL-5 3.15 µM | SK-MEL-2 1.29 µM | SK-OV-3 13.5 µM | EKVX 14.6 µM | TK-10 7.11 µM | HOP-92 6.35 µM
2.49 µM: HCT-15

COC(=O)C(Cc1ccccc1)NC(=O)C(CCCNC(=N)N)NC(=O)OCc1ccccc1 (stereo not drawn)
inactive: RPMI-8226 > 100 µM | ACHN > 100 µM | CAKI-1 > 100 µM | HOP-62 > 100 µM | CCRF-CEM > 100 µM | MDA-N > 100 µM | NCI-H522 > 100 µM | OVCAR-8 > 100 µM | T47D > 100 µM | NCI-H23 > 100 µM | SN12C > 100 µM | A549 > 100 µM | PC-3 > 100 µM | SK-MEL-5 > 100 µM | SK-OV-3 > 100 µM | EKVX > 100 µM | TK-10 > 100 µM | HOP-92 > 100 µM
> 100 µM: HCT-15

N#Cc1c(-c2ccc(Cl)cc2)cc(-c2ccc(Nc3ccnc4cc(C(F)(F)F)ccc34)cc2)nc1N
inactive: RPMI-8226 23.4 µM | ACHN 17.4 µM | CAKI-1 57.7 µM | HOP-62 19.7 µM | CCRF-CEM 12.4 µM | MDA-N 32.8 µM | NCI-H522 31.4 µM | OVCAR-8 > 100 µM | T47D 18.5 µM | NCI-H23 57.5 µM | SN12C 22 µM | A549 83.4 µM | PC-3 32.9 µM | SK-MEL-5 25.3 µM | SK-MEL-2 27.8 µM | SK-OV-3 39.6 µM | EKVX 67 µM | TK-10 31.2 µM
17.9 µM: HCT-15

CCc1cc2c(c3c1CCC3=O)CC1(Cc3ccc(C)cc3C1)C2 (stereo not drawn)
46.3 µM: HCT-15
inactive: RPMI-8226 22.2 µM | ACHN 27.3 µM | HOP-62 > 100 µM | CCRF-CEM 13.6 µM | MDA-N 38.1 µM | NCI-H522 23.8 µM | OVCAR-8 > 100 µM | T47D 14.1 µM | NCI-H23 > 100 µM | SN12C 43.4 µM | A549 18.2 µM | PC-3 23 µM | SK-MEL-5 18.9 µM | SK-MEL-2 31.5 µM | SK-OV-3 71.3 µM | EKVX 16.8 µM | TK-10 > 100 µM | HOP-92 22.7 µM

S=C1CSc2c(ccc3ccccc23)N1
> 100 µM: HCT-15
inactive: RPMI-8226 > 100 µM | ACHN > 100 µM | CAKI-1 > 100 µM | HOP-62 > 100 µM | CCRF-CEM > 100 µM | MDA-N > 100 µM | NCI-H522 > 100 µM | OVCAR-8 > 100 µM | T47D > 100 µM | NCI-H23 > 100 µM | SN12C > 100 µM | A549 67.1 µM | PC-3 > 100 µM | SK-MEL-5 > 100 µM | SK-OV-3 > 100 µM | EKVX 21.7 µM | TK-10 > 100 µM

CN1C2CC(=O)CC1[C@@H]1OC(c3ccccc3)O[C@H]21 (stereo partly drawn)
inactive: RPMI-8226 > 100 µM | CAKI-1 > 100 µM | HOP-62 > 100 µM | CCRF-CEM > 100 µM | MDA-N > 100 µM | NCI-H522 > 100 µM | OVCAR-8 > 100 µM | T47D > 100 µM | NCI-H23 > 100 µM | SN12C > 100 µM | A549 > 100 µM | PC-3 > 100 µM | SK-MEL-5 > 100 µM | SK-MEL-2 > 100 µM | SK-OV-3 > 100 µM | EKVX > 100 µM | TK-10 > 100 µM
> 100 µM: HCT-15

Cc1cccc2c1CC1(Cc3ccccc3C1=O)C2=O (stereo not drawn)
> 100 µM: HCT-15
inactive: RPMI-8226 > 100 µM | ACHN > 100 µM | HOP-62 35.7 µM | CCRF-CEM > 100 µM | MDA-N > 100 µM | NCI-H522 > 100 µM | OVCAR-8 > 100 µM | T47D > 100 µM | NCI-H23 > 100 µM | SN12C > 100 µM | A549 > 100 µM | PC-3 > 100 µM | SK-MEL-5 > 100 µM | SK-OV-3 37.6 µM | EKVX > 100 µM | TK-10 > 100 µM | HOP-92 76.9 µM

COc1ccc(-n2c(=O)n(C)c(=O)n2-c2ccc(OC)cc2)cc1
inactive: RPMI-8226 > 100 µM | ACHN > 100 µM | CAKI-1 > 100 µM | HOP-62 > 100 µM | CCRF-CEM > 100 µM | MDA-N > 100 µM | OVCAR-8 > 100 µM | T47D > 100 µM | NCI-H23 > 100 µM | SN12C > 100 µM | A549 > 100 µM | PC-3 > 100 µM | SK-MEL-5 > 100 µM | SK-MEL-2 > 100 µM | SK-OV-3 > 100 µM | EKVX > 100 µM | TK-10 > 100 µM | HOP-92 > 100 µM
> 100 µM: HCT-15

CN(C)CCCn1cnc2cc(Cl)c(Cl)cc21
> 100 µM: HCT-15
inactive: RPMI-8226 38.4 µM | ACHN > 100 µM | CAKI-1 64.3 µM | HOP-62 > 100 µM | CCRF-CEM 55.7 µM | MDA-N 34.1 µM | NCI-H522 > 100 µM | OVCAR-8 > 100 µM | T47D 59.7 µM | NCI-H23 > 100 µM | SN12C 43.8 µM | A549 > 100 µM | PC-3 > 100 µM | SK-MEL-5 53.1 µM | SK-MEL-2 > 100 µM | SK-OV-3 > 100 µM | EKVX > 100 µM | TK-10 42.7 µM

C=CCC1(C#N)C(=S)NC2=C(C(=O)CC(C)(C)C2)C1c1ccccc1 (stereo not drawn)
inactive: RPMI-8226 52.5 µM | CAKI-1 74.3 µM | CCRF-CEM 83.6 µM | MDA-N 70.6 µM | OVCAR-8 24 µM | T47D 27.3 µM | NCI-H23 39.9 µM | SN12C 38.5 µM | A549 33.8 µM | PC-3 32.2 µM | SK-MEL-5 45.6 µM | SK-MEL-2 46.8 µM | EKVX 19.2 µM | HOP-92 35.1 µM
70.1 µM: HCT-15

CC(=O)O[C@H]1CC[C@@]2(C)C(=CC[C@@H]3[C@@H]2CC[C@]2(C)c4c(C)nn(-c5ccccc5)c4C[C@@H]32)C1
37.1 µM: HCT-15
inactive: ACHN 19.5 µM | CAKI-1 20.9 µM | HOP-62 15.5 µM | CCRF-CEM 11.2 µM | MDA-N 23.1 µM | NCI-H522 13.7 µM | OVCAR-8 40.7 µM | T47D 33 µM | NCI-H23 13.2 µM | SN12C 33.3 µM | A549 35.9 µM | PC-3 26.7 µM | SK-MEL-5 37.2 µM | SK-OV-3 20.6 µM | EKVX 14.9 µM | TK-10 22.8 µM | HOP-92 22.2 µM

CCCCCCCCCCCCCCCCNC(=O)/C(O)=C/C(=O)c1ccc(C)cc1
inactive: RPMI-8226 > 10 µM | ACHN > 10 µM | CAKI-1 > 10 µM | HOP-62 > 10 µM | CCRF-CEM > 10 µM | MDA-N > 10 µM | NCI-H522 > 10 µM | OVCAR-8 > 10 µM | T47D > 10 µM | NCI-H23 > 10 µM | SN12C > 10 µM | PC-3 3.32 µM | SK-MEL-5 > 10 µM | SK-MEL-2 > 10 µM | SK-OV-3 > 10 µM | EKVX > 10 µM | TK-10 > 10 µM
> 10 µM: HCT-15

Nc1cc2ncnc(Nc3cccc(Br)c3)c2cn1
inactive: RPMI-8226 52.5 µM | ACHN 3.44 µM | CAKI-1 32.4 µM | HOP-62 29.4 µM | CCRF-CEM 96.8 µM | MDA-N 31 µM | OVCAR-8 36.1 µM | T47D 23.9 µM | NCI-H23 57 µM | SN12C 17.6 µM | A549 35.9 µM | PC-3 28.5 µM | SK-MEL-5 42.7 µM | SK-MEL-2 19.8 µM | SK-OV-3 8.18 µM | TK-10 2.52 µM | HOP-92 26.4 µM
12.3 µM: HCT-15

Cc1ccc2nc(Cl)c(/C=N/N3C(=O)/C(=C/c4ccccc4S)N=C3c3ccccc3)cc2c1
37.8 µM: HCT-15
inactive: RPMI-8226 21.4 µM | ACHN 46.6 µM | CAKI-1 44.6 µM | HOP-62 27.7 µM | CCRF-CEM 15.5 µM | MDA-N 17 µM | OVCAR-8 47.8 µM | T47D 48.5 µM | SN12C 35.7 µM | A549 33.4 µM | PC-3 38.3 µM | SK-MEL-5 31.6 µM | SK-MEL-2 20.4 µM | SK-OV-3 22.2 µM | EKVX 59.7 µM | TK-10 48.6 µM | HOP-92 73.6 µM

COc1ccc(/C(=N/O)c2ccccc2-c2nc3ccccc3c(=O)n2-c2ccc(S(=O)(=O)Nc3ncccn3)cc2)cc1C
inactive: RPMI-8226 14.6 µM | ACHN 14.4 µM | CAKI-1 21.1 µM | HOP-62 16.1 µM | CCRF-CEM 13.6 µM | MDA-N 18.3 µM | NCI-H522 14.2 µM | OVCAR-8 18.4 µM | T47D 12.6 µM | NCI-H23 12 µM | SN12C > 30.2 µM | A549 17.4 µM | PC-3 19.7 µM | SK-MEL-5 12.8 µM | SK-OV-3 6.81 µM | EKVX 16.5 µM | TK-10 21.8 µM | HOP-92 8.73 µM
14 µM: HCT-15
